System: S. aureus Newman
Assay: Adhesion of S. aureus Newman to GST-L2v loricrin
Type: cell-based, Staphylococcus aureus
Conditions: for concentration giving full inhibition of adhesion to L2v loricrin: S. aureus Newman, GST-L2v
Method: FIG 4 Allantodapsone inhibits S. aureus adhesion to loricrin and cytokeratin 10. Dose-response curve for adhesion of S. aureus Newman to GST-L2v loricrin (A) and CK10 (C). (B) Inhibition of recombinant ClfB N2N3 binding to immobilized GST-L2v loricrin by allantodapsone. (D) Inhibition of S. aureus Newman adhesion to GST-L2v loricrin by allantodapsone derivatives. Purified GST-L2v or CK10 were used to coat plates at 4°C overnight. Wells were washed with PBS and blocked with 1% BSA. Washed bacteria (OD600 of 1) were mixed with allantodapsone or vehicle control before being added to the wells and incubated for 2 h at 37°C. Adherent cells were washed, fixed, and stained with crystal violet, and wells further washed. The dye was dissolved in acetic acid, and the absorbance measured at 570 nm. GST-L2v was used at 20 μM in A and D. CK10 was used at 10 nM. Test compounds were incubated with bacteria at 80 μM and normalized to the DMSO vehicle control in D. For data presented in B, recombinant ClfB was incubated with allantodapsone (100 μM) or DMSO (1%) for 30 min prior to being added to wells coated with recombinant GST-L2v loricrin. Bound ClfB was detected using peroxidase-conjugated anti-His monoclonal antibody in an ELISA. The graphs shown are representative of three independent experiments. Statistics were carried out using one-way ANOVA followed by the Dunnett’s posttest using GraphPad Prism version 9.0.
Adhesion assays were carried out according to Hartford et al. ([37]). Briefly, plates were coated with 10 μg/mL fibrinogen (Calbiochem, Darmstadt, Germany) or 20 μg/mL fibronectin (Sigma-Aldrich, Ireland) for 2 h at 37°C or for 16 h at 4°C. Plates were blocked with 1% BSA at 37°C for 1 h and washed 3 times in PBS. Washed bacteria were incubated at 37°C for 2 h. Adherent bacteria were washed three times in PBS and fixed in 5–9% formaldehyde at room temperature for 30 min. Wells were washed three times in PBS and stained using 5% crystal violet for 20 min. Wells were washed three times in PBS, and the crystal violet solubilized using 5% acetic acid. Plates were read at 570 nm on a Wallac Victor2, (Shelton, CT, USA). The minimum adhesion inhibitory concentration (MAIC) was determined as the concentration inhibiting greater than 90% bacterial adhesion.

Nc1ccc(S(=O)(=O)c2ccc(NCN3C(=O)NC(=O)C(=O)C3=O)cc2)cc1 [Allantodapsone]
concentration giving full inhibition of adhesion to L2v loricrin: 40 µM | concentration giving full inhibition of adhesion to L2v loricrin (listed as allantodapsone): 16.1 µg/mL | IC50 (Staphylococcus aureus, NEWMAN, read-out: IC50, inhibition of adhesion to L2v loricrin): 9.87 µM

Reference: article PMC9241669, “Allantodapsone is a Pan-Inhibitor of Staphylococcus aureus Adhesion to Fibrinogen, Loricrin, and Cytokeratin 10” (Microbiology Spectrum, 2022)
